Measured values: patent US11771671B2, “Use of (1S,3S)-3-amino-4-(difluoromethylidene) cyclopentane-1-carboxylic acid and (S)-3-amino-4-(difluoromethylenyl)cyclopent-1-ene-1-carboxylic acid in the treatment of tinnitus, acute sensorineural hearing loss, Meniere's disease, Tourette's syndrome, attention deficit hyperactivity disorder and …” (Ovid Therapeutics Inc., priority 2018, dated 2023)

Experiment: plasma pharmacokinetics
Assay type: in vivo

AUCs dose proportionality (dose range of 5 mg-500 mg): greater than proportional increase
C. dose proportionality (dose range of 5 mg-500 mg): increases in a dose proportional manner
half-life (plasma, read-out: plasma elimination half-life): 4 to 6 h
SMILES: N[C@H]1C[C@@H](C(=O)O)CC1=C(F)F [(1S,3S)-3-amino-4-(difluoromethylidene)cyclopentane-1-carboxylic acid]
